Legend:
UCP3 = UCP3 RNA induction in rat L6 cells (QPCR); format: cell-based
Protocol: Table 1 provides QPCR data (ABI 7700 Sequence Detection System) for exemplary compounds of formula I evaluated for UCP3 RNA induction in L6 cells from rats. The assay is described in Example 14.4, below.
Rat UCP3 (L6 cells) QPCR Protocol
1. (Day1) Plate 300,000 L6 cells per well (24 well plate) in Minimum Essential Medium-Alpha Medium with 2% FBS and Antibiotic/Antimycotic Solution added. Incubate for 2 days and change to fresh medium (Day3). Incubate 1 more day.
2. (Day 4) Add compound at desired concentration. Incubate for 18-20 h. 2 wells per compound. 4-wells of DMSO controls per plate.
3. (Day 5) Prepare RNA from cells: • (1) Aspirate media and lyse cells directly on plate by adding 500 μL of Trizol Reagent (Gibco BRL) to each well and passing the lysate several times through a pipette. Transfer lysate to eppendorf tubes (combining the lysate from identical compound treatments). • (2) Add 200 μL of chloroform to the 1 mL of lysate. Vortex to mix and incubate at room temp. for 2-3 min. Spin samples in a microfuge at 12,000 rpm for 15 min. at 4° C. • (3) Transfer the aqueous phase to a fresh tube. Precipitate the RNA from the aqueous phase by adding 500 μL of isopropanol and mixing well. Incubate at −20° C. for at least 15 min. Pellet the RNA by spinning at 12,000 rpm for 10 min. at 4° C. • (4) Remove the supernatant and wash the RNA pellet with 500 μL of 75% ethanol. Spin at 10,000 rpm for 5 min. at 4° C. • (5) Remove the supernatant and allow pellet to air dry briefly. Dissolve RNA in 15 μL of RNase-free water. Store at −80° C. Electrophorese some RNA to check quality.
4. QPCR (50 μL reactions in 96 well MicroAmp Optical Plate): TaqMan Gold RT-PCR Reagents (PE catalog #N808-0232): OD RNA and dilute to 5 ng/μL in RNase-free water. All samples run in duplicate with UCP3 and m18S probe/primers
Add 40 μL of Reaction Mix to 10 μL of diluted RNA (50 ng total) on QPCR plate PCR Cycling Parameters • 48° C. 30 min. • 95° C. 10 min. • 40 cycles: 95° C. 15 sec. • 58° C. 1.5 min. QPCR Primers/Probes

UCP3 protein = UCP3 protein induction in vivo in skeletal muscle after oral dosing (Western blot); conditions: skeletal muscle tissue from Sprague-Dawley rats
Protocol: UCP3 protein was induced 2- to 3-fold in vivo (skeletal muscle tissue from Sprague-Dawley rats) after oral dosing with compound 1 (Western blot).
1. Isolate rat or mouse skeletal muscle and snap freeze in liquid nitrogen. Grind into a fine powder using mortar and pestle and transfer to an eppendorf tube.
2. Resuspend skeletal muscle in Buffer 1 (0.15 mM MgCl2, 10 mM KCl, 10 mM Tris-HCl, pH 6.7, stored at 4° C.).
3. Place resuspended cells on ice for 2 min. Homogenize using either Potter-Eleuhjem Teflon homogenizer and glass dounce or using hand held homogenizer for 2 min.
4. Add sucrose (1 M) to a final concentration of 0.25 M and spin at 1500 g (4000 rpm in microfuge) for 3 min. to remove nuclei.
5. Take the supernatant fraction and pellet the mitochondria by centrifugation at 10000 rpm for 10 min.
6. Resuspend pellet in 500 μl Buffer 2 (0.15 mM MgCl2, […], 10 mM Tris-HCl, pH 6.7, stored at 2-4° C.).
9. Resuspend final mitochondrial pellet in 2 7 μl Buffer 3 (0.25 M Sucrose, 10 mM Tris-acetate, pH 7.0, 3 μl 10× protease inhibitor cocktail (BMB), stored at 4° C.).
10. Determine protein concentration with BioRad protein assay dye (Bradford Reagent). 1 μl protein in 100 μl 1× Bradford Reagent. OD595 with BSA standard curve (1 μg/μl-50 μg/μl).
For antiUCP3 Westerns use 60 μg protein. Run precast 10% gels until dye front is about 1 cm from bottom of gel. […]

RXRα = target: T1, RXRα (Homo sapiens, UniProt P19793); assay: RXRα induction in HEK 293 cells (transient transfection, luciferase reporter); format: cell-based
T1 construct: expressed in transfected cells; host or cells: HEK 293 cells
T1 sequence (P19793 1-462): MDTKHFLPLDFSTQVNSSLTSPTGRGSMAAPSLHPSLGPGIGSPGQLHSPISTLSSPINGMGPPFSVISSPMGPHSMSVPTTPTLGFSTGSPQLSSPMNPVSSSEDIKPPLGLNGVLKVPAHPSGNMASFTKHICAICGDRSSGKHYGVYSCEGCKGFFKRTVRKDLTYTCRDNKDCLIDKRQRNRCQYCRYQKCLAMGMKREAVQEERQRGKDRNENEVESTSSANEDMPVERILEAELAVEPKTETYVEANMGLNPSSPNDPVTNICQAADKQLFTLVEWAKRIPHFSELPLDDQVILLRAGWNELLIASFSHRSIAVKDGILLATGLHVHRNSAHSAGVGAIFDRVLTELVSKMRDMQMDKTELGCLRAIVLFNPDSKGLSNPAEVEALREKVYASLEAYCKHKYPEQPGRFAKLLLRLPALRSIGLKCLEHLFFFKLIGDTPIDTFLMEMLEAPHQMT
Protocol: Table 2 provides QPCR data (ABI 7700 Sequence Detection System) for exemplary compounds of formula I evaluated for RXR induction in HEK 293 cells, following a general protocol, briefly described below. See Naeger et al. (1999) J. Biol. Chem. 274:1875-1878 for a related cell-based assay.
DNA constructs containing a luciferase reporter plasmid and another plasmid which contained an activation domain (e.g., RXRα) were transiently transfected into HEK 293 cells. The cells were treated with the compounds and luciferase activity was measured using a luminometer. Fold induction was determined by comparing the luciferase activity of treated cells to the activity of untreated cells.

RXRα RNA induction at 3 μM (RXRα; 3 μM): + (+ denotes 5-fold or less induction)
RXRα RNA induction at 10 μM (RXRα; 10 μM): + (+ denotes 5-fold or less induction)
melting point: 226.7 to 227.5 °C
SMILES: Cc1c(C(=O)O)cnn1-c1nc(-c2cccc(C(F)(F)F)c2)cs1 [Compound 1, 1-[4-(3-(Trifluoromethyl)phenyl)thiazol-2-yl]-5-methylpyrazole-4-carboxylic acid]
fold induction at 10 µM (UCP3): > 10
UCP3 protein induction (UCP3 protein): 2- to 3 fold
RXRα RNA induction at 1 μM (RXRα; 1 μM): ++ (++ denotes greater than 5-fold induction)
